Reference: patent US20120272343A1, “STROMAL INTERACTING MOLECULE KNOCKOUT MOUSE AND USES THEREOF” (IMMUNE DISEASE INSTITUTE, INC., priority 2007, published 2012)

System: CRAC current (ICRAC)
Assay: Whole cell patch-clamp recordings of CRAC current in differentiated CD4+ T cells
Format: cell-based, mouse
Settings: for increase in current amplitude following 2-APB application: thapsigargin-pretreated, 2-APB 40 μM, step to −100 mV
Method: CD4^+ T cells were cultured in non-polarizing conditions and harvested at day 5. Patch-clamp recordings were performed using an Axopatch 200 amplifier (Axon Instruments) interfaced to an ITC-18 input/output board (Instrutech) and an iMac G5 computer. Currents were filtered at 1 kHz with a 4-pole Bessel filter and sampled at 5 kHz. Recording electrodes were pulled from 100-μl pipettes, coated with Sylgard, and fire-polished to a final resistance of 2-5 MΩ. Stimulation and data acquisition and analysis were performed using in-house routines developed on the Igor Pro platform (Wavemetrics). All data were corrected for the liquid junction potential of the pipette solution relative to Ringer's in the bath (10 mV) and for leak currents collected in 20 mM [Ca^2+]o+25 μM La^3+. The standard extracellular Ringer solution contained (in mM): 130 NaCl, 4.5 KCl, 20 CaCl2, 1 MgCl2, 10 D-glucose, and 5 Na-Hepes (pH 7.4). In some experiments, 2 mM CaCl2 was used in the standard extracellular solution and the NaCl concentration was raised to 150 mM. The standard divalent-free (DVF) Ringer solutions contained (in mM) 150 NaCl, 10 mM tetraacetic acid, 1 mM EDTA and 10 mM Hepes (pH 7.4). 25 nM charybdotoxin (Sigma) was added to all extracellular solutions to eliminate contamination from Kv1.3 channels. […] Averaged results are presented as the mean value±s.e.m. Curve fitting was done by least-squares methods using built-in functions in Igor Pro 5.0. The permeability of Cs^+ relative to that of Na^+ was calculated from the bionic reversal potential using the relation:

Row | SMILES | block of Na+ CRAC currents (wild-type mouse T cells, 20 μM Ca2+) | increase in current amplitude following 2-APB application (STIM2-deficient T cells, n=5) | increase in current amplitude following 2-APB application (control T cells, n=4)
1 | [Ca+2] [Ca^2+] | ~50% | – | –
2 | NCCOB(c1ccccc1)c1ccccc1 [2-APB, 2-Aminoethoxydiphenyl borate] | – | 30±7% | 26±6%
